Data as given in patent US12162901B2, “N-acetylated sialic acids and related sialosides” (priority 2016, dated 2024).

What was measured:
[1] = target: bovine coronavirus hemagglutinin-esterase (BCoV-Mebus-Fc, esterase inactivated) (Bovine coronavirus, UniProt P15776, S40A); test: Sialoglycan microarray binding of BCoV-Mebus-Fc (esterase inactive); conditions: without esterase treatment (FIG. 3A)
BJA-B K20 cells = test: Feeding of free sialic acids to BJA-B K20 cells, PToV probes, flow cytometry; type: cell-based, human; conditions: 1 mM, three days; PToV with active esterase

SMILES	binding of BCoV on glycan microarray [1]	resistance of cell surface sialic acid to virus-hemagglutinin-esterase activity (BJA-B K20 cells)
CC(=O)N[C@H]1[C@H]([C@H](O)[C@H](O)COC(C)=O)O[C@@](O[C@H]2[C@@H](O)[C@@H](CO)O[C@@H](O[C@H]3[C@H](O)[C@@H](O)[C@H](OCCCN)O[C@@H]3CO)[C@@H]2O)(C(=O)O)C[C@@H]1O [Neu5,9Ac2α3Galβ4GlcβProNH2]	prefer binding	–
CC(=O)N[C@H]1[C@H]([C@H](O)[C@H](O)COC(C)=O)OC(O)(C(=O)O)C[C@@H]1O (stereo partly shown) [Neu5,9Ac2, 9-O-acetyl-N-acetylneuraminic acid]	–	only Neu5Ac9NAc-fed ones were resistant
CC(=O)NC[C@@H](O)[C@@H](O)[C@@H]1O[C@@](O[C@H]2[C@@H](O)[C@@H](CO)O[C@@H](O[C@H]3[C@H](O)[C@@H](O)[C@H](OCCCN)O[C@@H]3CO)[C@@H]2O)(C(=O)O)C[C@H](O)[C@H]1NC(C)=O [Neu5Ac9NAcα3Galβ4GlcβProNH2, 3-Aminopropyl O-(5,9-Diacetamido-3,5,9-trideoxy-D-glycero-α-D-galacto-2-nonulopyranosylonic acid)-(2→3)-O-β-D-galactopyranosyl-(1→4)-β-D-glucopyranoside]	prefer binding	–
CC(=O)NC[C@@H](O)[C@@H](O)[C@@H]1OC(O)(C(=O)O)C[C@H](O)[C@H]1NC(C)=O (stereo partly drawn) [Neu5Ac9NAc, 5,9-Diacetamido-3,5,9-Trideoxy-D-glycero-D-galacto-2-nonulopyranosylonic Acid]	–	resistant to virus-hemagglutinin-esterase activity
